Experimental data from patent US12121596B2, “Near infrared fluorescent dyes, formulations and related methods” (Washington University, priority 2019, dated 2024).
Positions of bridges follow the written chain, without caps; N, C: chain ends. Non-standard residues stand in square brackets, D forms with d. Residues, ends and D or L forms follow the SMILES beside them. *: point of attachment. X1 = CC1(C)C(/C=C/C=C/C=C/C=C2/N(CCC(=O)*)c3ccc4ccccc4c3C2(C)C)=[N+](CCC(=O)[O-])c2ccc3ccccc3c21

Experiments:
[1] = target: pANXA2 (Homo sapiens, UniProt P07355); test: Microscale thermophoresis (MST), pANXA2 binding; conditions: read-out: apparent Kd, pANXA2
From the text: Recombinant proteins and antibodies. Recombinant annexin A2, annexin A2 with glutathione-S-transferase (GST) tag, annexin A1, and annexin A3 proteins were purchased from MyBioSource, Inc. (San Diego, CA, USA). Purified ANXA2 protein and purified pANXA2 protein were gifts from Dr. Gabriel Bimme (Beth Israel Deaconess Medical Center, Boston, MA). Rabbit monoclonal anti-annexin A2 antibody (D11G2, #8235), Rabbit monoclonal anti-Rab5 (C8B1, #3547), and rabbit monoclonal anti-Rab7 (D95F2, #936 7) primary antibodies were purchased from Cell Signaling Technology, Inc. (Danvers, MA, USA). Mouse monoclonal anti-β-actin 2A3 (sc-517582), mouse monoclonal anti-pANXA2 antibody (11.Tyr 24) (sc-135752), rabbit polyclonal anti-NOS2 (C-19, sc-649), rabbit polyclonal anti-ARG1 (H-52, sc-20150) antibodies, and protein A/G agarose were purchased from Santa Cruz Biotechnology, Inc. (Dallas, TX, USA). […]
MST was performed using the Monolith NT.115 (Nanotemper Technologies, Munich, Germany). […] Fluorescence was assessed in MST-2 buffer (50 mM Tris-HCl, pH 7.4; 150 mM NaCl; 10 mM MgCl2). […] The apparent Kd values were calculated from fragment concentration-dependent changes in normalized fluorescence (Fraction Bound) of LS301 after 5 seconds of thermophoresis based on mass action law using the MO Affinity Analysis v2.3 software.

[2] = target: T1, ANXA2 over ANXA1 and ANXA3 (Homo sapiens, UniProt P07355); test: Annexin selectivity, fluorescent gel binding; conditions: ANXA2 vs ANXA1 and ANXA3
T1 construct: GST; purchased MyBioSource, Inc
Method: For fluorescent gel binding experiments, 1 μg recombinant annexin A2 protein was incubated with LS301 or cypate (10 μM) at 37° C. for the periods indicated. Samples were subjected to SDS-PAGE on precast gels (Bio-Rad, Hercules, CA), and gels were imaged for near-infrared fluorescence (800 nm) using a Pearl Small Animal Imager (LI-COR Biosciences, Lincoln, NE, USA). For competitive binding experiments, Annexin A2-GST, annexin A1, or annexin A3 (1.0 μg protein per sample) was pre-incubated with or without 2.5 mM of LS637 (non-fluorescent LS301 analog; blocking peptide) in binding buffer (25 mM Tris-HCl pH 7.4, 150 mM NaCl, 1 mM MgCl2, 1 mM CaCl2) for 1 hour at 37° C. Ten μM. LS301 was then added to each sample. After incubation for 2 hours at 37° C., proteins were subjected to SDS-PAGE and imaged fluorescently. For some experiments, LS301 was incubated with 4T1 tumor cells before SDS-PAGE.

[3] = tested on: fibroblast co-cultured with ANXA2-positive GFP-expressing 4T1 cells; test: Fibroblast and 4T1 co-culture uptake; type: cell-based
Method: For co-culture experiments on intercellular pANXA2/ANXA2 transfer, fibroblasts (FB) (5×10^4 cells/well) were seeded on a 35-mm glass-bottom Petri dish (MarTek Cor. Ashland, MA, USA) overnight before seeding of 5×10^4 of cancer cells and further culture overnight before the experiment. LS301 (1 μM) was incubated with co-cultures of FB and ANXA2-YFP transfected HL60 cells, co-cultures of FB and wild-type HL60 cells, or co-cultures of FB and 4T1-GFP cells at 37° C. for 3 hours and then washed twice with 0.01 M PBS (pH 7.4). Then, the cells were fixed with 4% paraformaldehyde for 10 minutes.

[4] = tested on: breast cancer patient-derived xenograft; test: In vivo NIR imaging of tumor retention; set-up: species or system mice
Method: To establish the various tumor models, nude, Balb/c, or C57BL6 mice were injected with 10^5-10^7 tumor cells subcutaneously on unilateral or bilateral flanks. In some cases, spontaneous tumor models were used. Animals injected subcutaneously with saline served as sham tumor controls. For near-infrared imaging, 100 μL volumes of 60 μM LS301 or cypate in PBS were injected intravenously by lateral tail vein, and animals were imaged using a Pearl Small Animal Imager (LI-COR Biotechnology, Lincoln, NE, USA) at the indicated time points. In some experiments, probes were formulated in 1% albumin in PBS. Animals were shaved using commercially available hair removal equipment and products before imaging. For experiments involving further tissue analysis, animals were anesthetized with isoflurane and euthanized by cervical dislocation under anesthesia. Organs were harvested by surgical dissection. For quantitative organ biodistribution studies, individual regions of interest were drawn around each organ of interest, and fluorescence was quantified using the Pearl Small Animal Imager software.

T1 sequence (P07355 whole entry): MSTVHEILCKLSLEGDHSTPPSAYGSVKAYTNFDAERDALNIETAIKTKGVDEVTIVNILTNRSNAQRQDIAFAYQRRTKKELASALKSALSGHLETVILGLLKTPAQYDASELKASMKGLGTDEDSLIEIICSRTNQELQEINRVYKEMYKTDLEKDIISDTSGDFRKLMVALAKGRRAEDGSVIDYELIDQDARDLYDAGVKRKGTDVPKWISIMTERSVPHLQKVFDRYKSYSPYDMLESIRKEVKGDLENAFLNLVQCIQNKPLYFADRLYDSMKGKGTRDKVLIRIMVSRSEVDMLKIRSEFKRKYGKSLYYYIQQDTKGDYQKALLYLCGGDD
pANXA2, sequence (P07355 2-339 limits assumed): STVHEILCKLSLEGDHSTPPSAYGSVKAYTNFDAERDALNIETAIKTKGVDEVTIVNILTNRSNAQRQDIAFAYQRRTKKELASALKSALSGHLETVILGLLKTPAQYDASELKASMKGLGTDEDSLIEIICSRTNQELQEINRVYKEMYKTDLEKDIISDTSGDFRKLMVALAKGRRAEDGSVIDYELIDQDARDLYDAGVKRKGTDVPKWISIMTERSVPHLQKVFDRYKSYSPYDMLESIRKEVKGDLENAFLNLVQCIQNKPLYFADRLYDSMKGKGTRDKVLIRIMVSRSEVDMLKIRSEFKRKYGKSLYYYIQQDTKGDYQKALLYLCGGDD

**Q.** Which results are given for `CC1(C)C(/C=C/C=C/C=C/C=C2/N(CCC(=O)N[C@@H]3CSSC[C@@H](C(=O)N[C@@H](CCCCN)C(=O)O)NC(=O)[C@@H]4CCCN4C(=O)[C@H](CO)NC(=O)[C@H](CC(=O)O)NC(=O)[C@H](CCCNC(=N)N)NC(=O)CNC3=O)c3ccc4ccccc4c3C2(C)C)=[N+](CCC(=O)[O-])c2ccc3ccccc3c21` [LS301, cypate-cyclic (DCys-Gly-Arg-Asp-Ser-Pro-Cys)-Lys-OH] (X1-[dC]GRDSPCK-OH; disulfide 1-7)?
**A.** Kd [1]: 75 ± 2 pM; annexin binding preference [2]: preferentially targets ANXA2 over ANXA1 and ANXA3; uptake in co-culture [3]: LS301 uptake by tumor cells and fibroblasts; time remaining in the tumor lesion ([4]; breast cancer patient-derived xenograft): over 96 hours; tumor coverage ([4]; small tumors (<5 mm)): about 100%
